In test [1] the target is T1, Human factor Xa (Homo sapiens, UniProt P00742).
T1 construct: Human factor Xa, factor XIa, factor XIIa, thrombin, and plasma kallikrein were purchased; purchased Enzyme Research Laboratories (via Haemochrom, Essen)
The test can be described thus: Inhibition constants against purified human serine proteases: FXa. The class given is biochemical. Conditions: for Ki: 50 mM Tris-HCl pH 8.0, 154 mM NaCl, Pefachrome FXa. The source says:
(§1) Aprotinin and tranexamic acid were purchased from SIGMA (Schnelldorf, Germany). Human factor Xa, factor XIa, factor XIIa, thrombin, and plasma kallikrein were purchased from Enzyme Research Laboratories, and human plasmin from Chromogenix (both via Haemochrom, Essen, Germany). Various synthetic peptide chromogenic substrates used for determination of inhibition constants were obtained from Pentapharm (Basel, Switzerland), Roche (Mannheim, Germany), and Chromogenix: Chromozyme PL for plasmin, S2302 for plasma kallikrein, Pefachrome FXa for factor Xa, Chromozym XII for FXIIa, Pefachrom tPA for thrombin, and Pefachrome PCa for factor XIa. Tissue-type plasminogen activator was obtained from Boehringer Ingelheim (Ingelheim, Germany). INTEM, EXTEM and STARTEM reagents and disposables for ROTEM® measurements were obtained from Pentapharm (Munich, Germany).
(§2) Inhibition of purified human serine proteases by Compound No. 3 and aprotinin was studied using the established methods described herein in Example 3 (i.e., Stürzebecher et al., 1997). Enzyme kinetic experiments were carried out in 96-well flat-bottom plates (Brand, Wertheim, Germany) in 50 mM Tris-HCl pH 8.0, 154 mM NaCl in the presence of different substrate and inhibitor concentrations. Steady-state velocities of substrate conversion were obtained from progress curves generated by continuous monitoring of the absorbance at 405 nm with a microplate reader (Multiskan Ascent, Thermo Electron Corporation, Dreieich, Germany). […] Inhibition constants (Ki) were calculated from non-linear fits of individual data sets to the Michaelis-Menten equation for competitive inhibitors using an enzyme kinetic analysis software (SIGMA Plot® 9.0 Enzyme Kinetics Module, SSI, San Jose, Calif.). Dixon plot analysis was applied to confirm the competitive inhibition mode.

The test system of test [2] is t-PA-induced fibrinolysis in plasma. As to the kind of experiment: Plasma fibrinolysis assay (turbidometric). The class given is biochemical. The settings on record: human plasma, t-PA 50 U/mL; for IC50: read-out: IC50 on t-PA-induced fibrinolysis in plasma (median [25%; 75% percentile]). The protocol:
Venous blood was withdrawn from the antecubital vein from healthy volunteers after written informed consent in accordance with local and federal guidelines with approval of the local review board (Ethikkommission, Klinikum Charité, Sauerbruchweg 5, 10117 Berlin). The blood was mixed with 0.11 mol/L sodium citrate (1:10). For ROTEM® analysis, whole citrated blood was used within 8 h after collection. Platelet-rich plasma (PRP) was prepared from citrated blood by centrifugation at 330×g for 10 min at room temperature, platelet-poor plasma (PPP) was collected following centrifugation at 1220×g for 12 min. The PRP was then adjusted to 3×10^8 platelets per mL using the autologous PPP. PRP was maintained at room temperature for less than 4 h before analysis. The remaining PPP was subjected to a high-speed centrifugation at 40,000×g for 30 min at 4° C. to remove any particulate material and was then stored at −70° C. until use.
The antifibrinolytic activity of Compound No. 3 in comparison to aprotinin and tranexamic acid was investigated in plasma and whole blood assays. In both assays, tissue factor was added to initiate rapid clot formation via the extrinsic pathway which produces a clot that remains stable for several hours under normal conditions. Supplementation of plasma or whole blood with tissue-type plasminogen activator (t-PA) before stimulation results in activation of endogenous plasminogen and thus fibrinolysis while the initial clot formation is not impaired. […] A final concentration of 50 U/mL and 100 U/mL in plasma and whole blood, respectively, was chosen to achieve complete lysis within about 60 min. In the presence of antifibrinolytics, clot lysis is delayed in a concentration-dependent manner.
Inhibition of fibrinolysis in plasma was examined using a turbidometric method in 96-well flat-bottom plates. The time course of clot formation and lysis, reflected by an initial increase and subsequent decrease in turbidity, was recorded by continuously measuring the optical density (OD) at 405 nm. Similar models have been used widely to study the clot lysis process in human plasma (Kim et al., J. Thromb. Haemost. 5: 1250-6, 2007) as well as its inhibition by antifibrinolytic drugs (Sperzel et al., J. Thromb. Haemost. 5: 2113-8, 2007). Frozen and thawed human plasma (PPP) was pre-incubated with test compound or vehicle (Owren's Veronal buffer) for 5 min at 37° C. […] OD at 405 nm was monitored every 45 s for 180 min at 37° C. with a microplate reader (POLARstar OPTIMA, BMG Labtech, Offenburg, Germany). Fibrinolysis was quantified as the relative decrease in OD at 45 min after the maximum OD was reached. […]

In test [3] the test system is whole blood clotting. As to the kind of experiment: Whole blood coagulation assay (ROTEM, INTEM/EXTEM). The format is cell-based, human. The settings on record: for whole blood coagulation times (INTEM, EXTEM clotting time): 100 to 1000 nM; for clot strength (ROTEM maximum amplitude): over the concentration range tested (data not shown). The source says: Since Compound No. 3 inhibits multiple proteases of the coagulation system, we investigated possible anticoagulant properties using established tests in vitro. Whereas tissue factor is the physiologic trigger of coagulation, both extrinsic and contact-mediated stimulation contribute to hemostatic activation under conditions like CPB (Boisclair et al. Blood 82: 3350-7, 1993 and Edmunds et al., Ann. Thorac. Surg. 82: 2315-22, 2006). We therefore studied the impact of Compound No. 3 and aprotinin on coagulation in plasma and whole blood following both intrinsic and extrinsic stimulation. Tranexamic acid has no influence on other proteases than plasminogen and, therefore, is not included in these experiments.
The influence on whole blood clotting was assayed with rotational thrombelastometry (Ganter et al., Anesth. Analg. 106: 1366-75, 2008) using ellagic acid (INTEM reagent) as activator of the intrinsic system or tissue factor (EXTEM reagent) as extrinsic coagulation activator. Following a 5-min pre-incubation with test compounds or saline, citrated human blood was subjected to ROTEM® analysis according to the manufacturer's instructions. ROTEM® clotting time (equal to reaction time, r) and maximum clot strength (equal to maximum amplitude) were obtained as coagulation parameters.

The target of test [4] is Thrombin (Homo sapiens, UniProt P00734). As to the kind of experiment: Inhibition constants against purified human serine proteases: thrombin. The class given is biochemical. On the set-up: Human factor Xa, factor XIa, factor XIIa, thrombin, and plasma kallikrein were purchased; purchased Enzyme Research Laboratories (via Haemochrom, Essen). Conditions: 50 mM Tris-HCl pH 8.0, 154 mM NaCl, Pefachrom tPA.
From the text: as §1, with “Tissue-type plasminogen activator was obtained from Boehringer Ingelheim (Ingelheim, Germany). INTEM, EXTEM and STARTEM reagents and disposables for ROTEM® measurements were obtained from Pentapharm (Munich, Germany).” left out
as §2, with “Enzyme kinetic experiments were carried out in 96-well flat-bottom plates (Brand, Wertheim, Germany) in 50 mM Tris-HCl pH 8.0, 154 mM NaCl in the presence of different substrate and inhibitor concentrations.” left out, “Dixon plot analysis was applied to confirm the competitive inhibition mode.” left out

T1 sequence (P00742 235-488 limits assumed): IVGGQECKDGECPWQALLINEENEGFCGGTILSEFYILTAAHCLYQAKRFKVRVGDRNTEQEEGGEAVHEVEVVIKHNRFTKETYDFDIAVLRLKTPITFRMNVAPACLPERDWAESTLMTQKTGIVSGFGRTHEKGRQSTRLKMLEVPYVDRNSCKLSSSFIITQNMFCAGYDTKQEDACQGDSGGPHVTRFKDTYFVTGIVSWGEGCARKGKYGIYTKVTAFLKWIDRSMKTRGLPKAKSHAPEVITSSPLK
T1 sequence (P00742 41-179 partner limits assumed): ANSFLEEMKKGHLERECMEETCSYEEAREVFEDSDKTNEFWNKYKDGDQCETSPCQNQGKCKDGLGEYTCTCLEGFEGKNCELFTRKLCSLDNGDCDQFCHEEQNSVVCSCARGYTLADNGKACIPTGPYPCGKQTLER

Usually Ki stands for the equilibrium dissociation constant of an inhibitor or competing ligand from its target. One may read the IC50 as the midpoint of a concentration-inhibition curve. Turning to aprotinin, the figures for the inhibition constant (Ki) in test [1] and in test [4] were 55600 nM and 76000 nM, respectively. Further, the “IC50 on t-PA-induced fibrinolysis in plasma expressed in KIU/mL” value in test [2] (converted from nM) worked out at 15 KIU/mL. In test [2], the IC50 was determined as 327 nM. The “whole blood coagulation times (INTEM, EXTEM clotting time)” value in test [3] is “almost no influence”. The “intrinsic ROTEM clotting times” value in test [3] (higher aprotinin concentrations (data not shown)) is “marked prolongation”. Besides, the “clot strength (ROTEM maximum amplitude)” value in test [3] is listed as “Neither Compound No. 3 nor aprotinin impaired clot strength”.

As to `N=C(N)c1ccc(CNC(=O)[C@H](Cc2cccc(CN)c2)NC(=O)[C@@H](CCCc2ccccc2)NS(=O)(=O)Cc2cccc(C(=O)O)c2)cc1` [compound 3, 3-HOOC-Bzls-d-Ppg-Phe(3-Ame)-4-Amba×2 acetate], the Ki in test [1] came out at 45 ± 5 nM; in test [4], 1700 ± 200 nM. Also, the “stronger inhibition of FXa than aprotinin” value in test [1] (versus aprotinin) is given as 1200 fold. Moreover, in test [2], the concentration for half-maximal inhibition (IC50) was determined as 315 nM. Also, the “whole blood coagulation times (INTEM, EXTEM clotting time)” value in test [3] is “significant prolongation”. Besides, the “clot strength (ROTEM maximum amplitude)” value in test [3] is recorded as “Neither Compound No. 3 nor aprotinin impaired clot strength”.

The values are drawn from patent publication US8410310B2, “Trypsin-like serine protease inhibitors, and their preparation and use” (The Medicines Company (Leipzig) GmbH, priority 2006, dated 2013).
